ChEMBL document CHEMBL1146722, “Synthesis and antibacterial activity of 6-O-arylpropargyl-9-oxime-11,12-carbamate ketolides” (2004)
Converted amounts (≈) assume the structure as drawn.

Columns and labels:
Assay type in all cases: functional
Staphylococcus aureus [1] = assay: In vitro antibacterial activity against Staphylococcus aureus A5177 strain
Streptococcus pyogenes [2] = assay: In vitro antibacterial activity against Streptococcus pyogenes EES61
Streptococcus pneumoniae [3] = assay: In vitro antibacterial activity against Streptococcus pneumoniae 5649
Streptococcus pneumoniae [4] = assay: In vitro antibacterial activity against Streptococcus pneumoniae 5979
Staphylococcus aureus [5] = assay: In vitro antibacterial activity against Staphylococcus aureus NCTC 10649M strain
Streptococcus pyogenes [6] = assay: In vitro antibacterial activity against Streptococcus pyogenes 930
Haemophilus influenzae = assay: In vitro antibacterial activity against Haemophilus influenzae GYR1435
Staphylococcus aureus [7] = assay: In vitro antibacterial activity against Staphylococcus aureus 1775 strain
Streptococcus pneumoniae [8] = assay: In vitro antibacterial activity against Streptococcus pneumoniae ATCC 6303
Streptococcus pyogenes [9] = assay: In vitro antibacterial activity against Streptococcus pyogenes PIU 2548

CC[C@H]1OC(=O)[C@@](C)(F)C(=O)[C@H](C)[C@@H](OC2O[C@H](C)C[C@H](N(C)C)[C@H]2O)[C@@](C)(OCC#Cc2cnc3ccccc3c2)C[C@@H](C)/C(=N\OC)[C@H](C)[C@H]2NC(=O)O[C@@]21C (stereo not given in full)
MIC (Staphylococcus aureus [1]): 0.25 µg/mL (≈ 0.308 µM)
MIC (Streptococcus pyogenes [2]): 0.008 µg/mL (≈ 0.00986 µM)
MIC (Streptococcus pneumoniae [3]): 0.125 µg/mL (≈ 0.154 µM)
MIC (Streptococcus pneumoniae [4]): 0.125 µg/mL (≈ 0.154 µM)
MIC (Staphylococcus aureus [5]): 0.5 µg/mL (≈ 0.617 µM)
MIC (Streptococcus pyogenes [6]): 0.5 µg/mL (≈ 0.617 µM)
MIC (Haemophilus influenzae): 4 µg/mL (≈ 4.93 µM)
MIC (Staphylococcus aureus [7]): 64 µg/mL (≈ 78.9 µM)
MIC (Streptococcus pneumoniae [8]): 0.008 µg/mL (≈ 0.00986 µM)
MIC (Streptococcus pyogenes [9]): 0.25 µg/mL (≈ 0.308 µM)

CC[C@H]1OC(=O)[C@H](C)C(=O)[C@H](C)[C@@H](O[C@@H]2O[C@H](C)C[C@H](N(C)C)[C@H]2O)[C@](C)(OC)C[C@@H](C)C(=O)[C@H](C)[C@H]2N(CCCCn3cnc(-c4cccnc4)c3)C(=O)O[C@]12C [TELITHROMYCIN]
MIC (Staphylococcus aureus [1]): 0.1 µg/mL (≈ 0.123 µM)
MIC (Streptococcus pyogenes [2]): 0.004 µg/mL (≈ 0.00493 µM)
MIC (Streptococcus pneumoniae [3]): 0.5 µg/mL (≈ 0.616 µM)
MIC (Streptococcus pneumoniae [4]): 8 µg/mL (≈ 9.85 µM)
MIC (Staphylococcus aureus [5]): 0.1 µg/mL (≈ 0.123 µM)
MIC (Streptococcus pyogenes [6]): 8 µg/mL (≈ 9.85 µM)
MIC (Haemophilus influenzae): 2 µg/mL (≈ 2.46 µM)
MIC (Staphylococcus aureus [7]): > 100 µg/mL
MIC (Streptococcus pneumoniae [8]): 0.004 µg/mL (≈ 0.00493 µM)
MIC (Streptococcus pyogenes [9]): 2 µg/mL (≈ 2.46 µM)

CC[C@H]1OC(=O)[C@H](C)C(=O)[C@H](C)[C@@H](OC2O[C@H](C)C[C@H](N(C)C)[C@H]2O)[C@@](C)(OCC#Cc2ccc3nccnc3c2)C[C@@H](C)/C(=N\OC)[C@H](C)[C@H]2NC(=O)O[C@@]21C (stereo not given in full)
MIC (Staphylococcus aureus [1]): 0.008 µg/mL (≈ 0.0101 µM)
MIC (Streptococcus pyogenes [2]): 0.008 µg/mL (≈ 0.0101 µM)
MIC (Streptococcus pneumoniae [3]): 0.125 µg/mL (≈ 0.157 µM)
MIC (Streptococcus pneumoniae [4]): 0.25 µg/mL (≈ 0.315 µM)
MIC (Staphylococcus aureus [5]): 0.25 µg/mL (≈ 0.315 µM)
MIC (Streptococcus pyogenes [6]): 8 µg/mL (≈ 10.1 µM)
MIC (Haemophilus influenzae): 8 µg/mL (≈ 10.1 µM)
MIC (Staphylococcus aureus [7]): > 128 µg/mL
MIC (Streptococcus pneumoniae [8]): 0.008 µg/mL (≈ 0.0101 µM)
MIC (Streptococcus pyogenes [9]): 0.5 µg/mL (≈ 0.63 µM)

CC[C@H]1OC(=O)[C@H](C)C(=O)[C@H](C)[C@@H](OC2O[C@H](C)C[C@H](N(C)C)[C@H]2O)[C@@](C)(OCC#Cc2cnc3cccnc3c2)C[C@@H](C)/C(=N\OC)[C@H](C)[C@H]2NC(=O)O[C@@]21C (stereo not given in full)
MIC (Staphylococcus aureus [1]): 0.008 µg/mL (≈ 0.0101 µM)
MIC (Streptococcus pyogenes [2]): 0.008 µg/mL (≈ 0.0101 µM)
MIC (Streptococcus pneumoniae [3]): 0.03 µg/mL (≈ 0.0378 µM)
MIC (Streptococcus pneumoniae [4]): 1 µg/mL (≈ 1.26 µM)
MIC (Staphylococcus aureus [5]): 1 µg/mL (≈ 1.26 µM)
MIC (Streptococcus pyogenes [6]): 0.5 µg/mL (≈ 0.63 µM)
MIC (Haemophilus influenzae): 2 µg/mL (≈ 2.52 µM)
MIC (Staphylococcus aureus [7]): > 128 µg/mL
MIC (Streptococcus pneumoniae [8]): 0.008 µg/mL (≈ 0.0101 µM)
MIC (Streptococcus pyogenes [9]): 0.06 µg/mL (≈ 0.0756 µM)

CC[C@H]1OC(=O)[C@H](C)C(=O)[C@H](C)[C@@H](OC2O[C@H](C)C[C@H](N(C)C)[C@H]2O)[C@@](C)(OCC#Cc2cnc3ccccc3c2)C[C@@H](C)/C(=N\OC)[C@H](C)[C@H]2NC(=O)O[C@@]21C (stereo not given in full)
MIC (Staphylococcus aureus [1]): 0.25 µg/mL (≈ 0.315 µM)
MIC (Streptococcus pyogenes [2]): 0.008 µg/mL (≈ 0.0101 µM)
MIC (Streptococcus pneumoniae [3]): 0.125 µg/mL (≈ 0.158 µM)
MIC (Streptococcus pneumoniae [4]): 0.25 µg/mL (≈ 0.315 µM)
MIC (Staphylococcus aureus [5]): 1 µg/mL (≈ 1.26 µM)
MIC (Streptococcus pyogenes [6]): 1 µg/mL (≈ 1.26 µM)
MIC (Haemophilus influenzae): 4 µg/mL (≈ 5.04 µM)
MIC (Staphylococcus aureus [7]): 128 µg/mL (≈ 161 µM)
MIC (Streptococcus pneumoniae [8]): 0.008 µg/mL (≈ 0.0101 µM)
MIC (Streptococcus pyogenes [9]): 0.125 µg/mL (≈ 0.158 µM)

CC[C@H]1OC(=O)[C@H](C)[C@@H](O[C@H]2C[C@@](C)(OC)[C@@H](O)[C@H](C)O2)[C@H](C)[C@@H](O[C@@H]2O[C@H](C)C[C@H](N(C)C)[C@H]2O)[C@](C)(O)C[C@@H](C)C(=O)[C@H](C)[C@@H](O)[C@]1(C)O [ERYTHROMYCIN]
MIC (Staphylococcus aureus [1]): > 128 µg/mL
MIC (Streptococcus pyogenes [2]): 0.015 µg/mL (≈ 0.0204 µM)
MIC (Streptococcus pneumoniae [3]): 4 µg/mL (≈ 5.45 µM)
MIC (Streptococcus pneumoniae [4]): > 128 µg/mL
MIC (Staphylococcus aureus [5]): 0.5 µg/mL (≈ 0.681 µM)
MIC (Streptococcus pyogenes [6]): > 128 µg/mL
MIC (Haemophilus influenzae): 4 µg/mL (≈ 5.45 µM)
MIC (Staphylococcus aureus [7]): > 128 µg/mL
MIC (Streptococcus pneumoniae [8]): 0.015 µg/mL (≈ 0.0204 µM)
MIC (Streptococcus pyogenes [9]): 8 µg/mL (≈ 10.9 µM)

CC[C@H]1OC(=O)[C@@](C)(F)C(=O)[C@H](C)[C@@H](OC2O[C@H](C)C[C@H](N(C)C)[C@H]2O)[C@@](C)(OCC#Cc2ccc(-c3nnn(C)n3)s2)C[C@@H](C)/C(=N\OC)[C@H](C)[C@H]2NC(=O)O[C@@]21C (stereo not given in full)
MIC (Staphylococcus aureus [1]): 0.25 µg/mL (≈ 0.295 µM)
MIC (Streptococcus pyogenes [2]): 0.008 µg/mL (≈ 0.00943 µM)
MIC (Streptococcus pneumoniae [3]): 0.125 µg/mL (≈ 0.147 µM)
MIC (Streptococcus pneumoniae [4]): 0.25 µg/mL (≈ 0.295 µM)
MIC (Staphylococcus aureus [5]): 1 µg/mL (≈ 1.18 µM)
MIC (Streptococcus pyogenes [6]): 8 µg/mL (≈ 9.43 µM)
MIC (Haemophilus influenzae): 8 µg/mL (≈ 9.43 µM)
MIC (Staphylococcus aureus [7]): 64 µg/mL (≈ 75.5 µM)
MIC (Streptococcus pneumoniae [8]): 0.008 µg/mL (≈ 0.00943 µM)
MIC (Streptococcus pyogenes [9]): 0.5 µg/mL (≈ 0.59 µM)

CC[C@H]1OC(=O)[C@H](C)C(=O)[C@H](C)[C@@H](OC2O[C@H](C)C[C@H](N(C)C)[C@H]2O)[C@@](C)(OCC#Cc2ccc(-c3nnn(C)n3)s2)C[C@@H](C)/C(=N\OC)[C@H](C)[C@H]2NC(=O)O[C@@]21C (stereo not given in full)
MIC (Staphylococcus aureus [1]): 0.008 µg/mL (≈ 0.00964 µM)
MIC (Streptococcus pyogenes [2]): 0.008 µg/mL (≈ 0.00964 µM)
MIC (Streptococcus pneumoniae [3]): 0.06 µg/mL (≈ 0.0723 µM)
MIC (Streptococcus pneumoniae [4]): 0.5 µg/mL (≈ 0.602 µM)
MIC (Staphylococcus aureus [5]): 0.25 µg/mL (≈ 0.301 µM)
MIC (Streptococcus pyogenes [6]): 32 µg/mL (≈ 38.6 µM)
MIC (Haemophilus influenzae): 4 µg/mL (≈ 4.82 µM)
MIC (Staphylococcus aureus [7]): 128 µg/mL (≈ 154 µM)
MIC (Streptococcus pneumoniae [8]): 0.008 µg/mL (≈ 0.00964 µM)
MIC (Streptococcus pyogenes [9]): 0.125 µg/mL (≈ 0.151 µM)

CC[C@H]1OC(=O)[C@H](C)C(=O)[C@H](C)[C@@H](OC2O[C@H](C)C[C@H](N(C)C)[C@H]2O)[C@@](C)(OCC#Cc2ccc(-c3ccccn3)s2)C[C@@H](C)/C(=N\OC)[C@H](C)[C@H]2NC(=O)O[C@@]21C (stereo not given in full)
MIC (Staphylococcus aureus [1]): 0.008 µg/mL (≈ 0.0097 µM)
MIC (Streptococcus pyogenes [2]): 0.008 µg/mL (≈ 0.0097 µM)
MIC (Streptococcus pneumoniae [3]): 0.008 µg/mL (≈ 0.0097 µM)
MIC (Streptococcus pneumoniae [4]): 0.008 µg/mL (≈ 0.0097 µM)
MIC (Staphylococcus aureus [5]): 0.25 µg/mL (≈ 0.303 µM)
MIC (Streptococcus pyogenes [6]): 16 µg/mL (≈ 19.4 µM)
MIC (Haemophilus influenzae): 4 µg/mL (≈ 4.85 µM)
MIC (Staphylococcus aureus [7]): 64 µg/mL (≈ 77.6 µM)
MIC (Streptococcus pneumoniae [8]): 0.008 µg/mL (≈ 0.0097 µM)
MIC (Streptococcus pyogenes [9]): 0.03 µg/mL (≈ 0.0364 µM)
